Assay results: patent US20210396738A1, “3D HUMAN CANCER MODEL-BASED COMBINATORIAL DRUG DEVELOPMENT METHOD” (PreComb Therapeutics AG, priority 2018, published 2021)
“Also recorded” adds a separate entry of the source. Like-named read-outs stand apart in the source and are kept apart here.

What was measured:
[1] = test system: NSCLC microtumors (A549 NSCLC cells with human lung fibroblasts Wi38); test: Non-small cell lung cancer (NSCLC) microtumor size/growth assay; format: cell-based; details: for Response: 14 days window; for effect on NSCLC microtumor growth: dosed 2× for 8h with 48h gap (FIG. 6, FIG. 11); for efficacy: impact on tumor growth: Vinorelbin high concentration vs low and high concentrated Docetaxel, dosed 2× for 8h with an 8h gap (FIG. 13B, D)
Procedure: The NSCLC model was produced by mixing A549 NSCLC cells (ATCC® CCL-18S™) with human lung fibroblasts (Wi38, ATCC® CCL-7S™) in a non-adhesive 96-well plate (GravityTRAP™). Drugs were dosed 2× for 8h with 48h gap.
Single and drug combinations were dosed 2× for 8h with a gap of 48h and growth monitored over time.
(§1) FIG. 13 exemplifies tox testing of single drugs using connective/stromal microtissues (Wi38) and efficacy testing on non-small cell tumor microtissues (A549; Wi38). Vinorelbin and Docetaxel, both disrupting microtubule, were dosed 2× for 8h with an 8h gap.

[2] = test system: pancreatic microtumors from pancreatic cancer cell line Panc-1 in co-culture with mouse fibroblast cell line NIH3T3; test: Pancreatic microtumor (3D microtissue) size/growth assay; details: for Response: 14 days window; for ΔT14/ΔC14: day 14; for effect on pancreatic microtumor growth: dosed for 8h with a 48h gap (FIG. 5)
Procedure: Both cells were expanded in cell culture flasks using Dulbecco's modification of Eagle medium (DMEM) supplemented with 10% fetal calf serum. After reaching confluency the were removed from the cell culture flask enzymatic digestion (Trypsin). Cell numbers of both cell types were assessed using a Neubauer chamber, and the respective cell number mixed to produce the co-culture microtumors. Seventy ul of the cell mixture was inoculated in each well of a non-adhesive 96-well plates (GravityTRAP™) using Dulbecco's modification of Eagle medium (DMEM) supplemented with 10% horse serum. Pancreatic microtumors were matured in a mammalian cell culture incubator at 37° C. with 5% CO2. […] After 48 hours the drug was removed by changing the culture medium with drug-free medium. The size of the pancreatic microtumors was monitored prior dosing and continuously after dosing using bright field microscopy. Growth is presented relative to the size of the pancreatic tumor microtissue prior compound treatment t0 (adapted from the RECIST criteria).
All drugs used were dissolved according to the manufactures protocol.

[3] = reference cmax used for potency; cited from earlier work
[4] = test system: microtumors from NSCLC cells directly derived from patients (NSCLC resection); test: Patient-derived NSCLC microtumor growth assay; format: cell-based, human; details: dosed 2× for 8h with a 48h gap (FIG. 12)
Procedure: A NSCLC resection was dissociated, and the cell Suspension used to produce microtumors in a multi-well format (FIG. 12A). Drugs were dosed 2× for 8h with a 48h gap.

[5] = test system: connective/stromal microtissues (Wi38); test: Tox testing on connective/stromal microtissues; format: cell-based, human; details: dosed 2× for 8h with an 8h gap (FIG. 13A, C)
Procedure: as §1

Nc1ccn([C@@H]2O[C@H](CO)[C@@H](O)C2(F)F)c(=O)n1 [Gemcitabine]
Time to MR (TMR) ([1]; Gemcitabine 0.1 ug/ml): 14 days
Response ([1]; Gemcitabine 0.1 ug/ml): RE (≥20% decrease in microtumor size)
ΔT14/ΔC14 ([1]; Gemcitabine 0.1 ug/ml, day 14): −2.72
Time to MR (TMR) ([1]; Gemcitabine 0.3 ug/ml): 14 days
Response ([1]; Gemcitabine 0.3 ug/ml): RE (≥20% decrease in microtumor size)
ΔT14/ΔC14 ([1]; Gemcitabine 0.3 ug/ml, day 14): −4.04
Time to MR (TMR) ([1]; Gemcitabine 0.5 ug/ml): 14 days
Response ([1]; Gemcitabine 0.5 ug/ml): RE (≥20% decrease in microtumor size)
ΔT14/ΔC14 ([1]; Gemcitabine 0.5 ug/ml, day 14): −3.87
Time to MR (TMR) ([2]; Gemcitabine 0.1 ug/ml): 10 days
Time until relapse (TR) ([2]; Gemcitabine 0.1 ug/ml): 10 days
Response ([2]; Gemcitabine 0.1 ug/ml): SR (+/−20% increase/decrease in size)
ΔT14/ΔC14 ([2]; Gemcitabine 0.1 ug/ml, treatment effect to untreated control): −0.25
Time to MR (TMR) ([2]; Gemcitabine 0.5 ug/ml): 10 days
Time until relapse (TR) ([2]; Gemcitabine 0.5 ug/ml): 10 days
Response ([2]; Gemcitabine 0.5 ug/ml): SR (+/−20% increase/decrease in size)
ΔT14/ΔC14 ([2]; Gemcitabine 0.5 ug/ml): −0.23
effect on pancreatic microtumor growth [2]: unfolds its effect quickly
day after which treated microtumors relapsed ([2]; dosed for 8h with a 48h gap (FIG. 5A)): > 10 days
median cmax [3]: (median cmax = 20 ug/ml)

O=C1CCC(N2C(=O)c3ccccc3C2=O)C(=O)N1 (stereo not drawn) [Thalidomide]
effect on NSCLC microtumor growth [1]: no significant impact on tumor growth remission
impact on tumor growth, single doses [4]: hardly an impact on tumor growth

CCC1=C[C@@H]2CN(C1)Cc1c([nH]c3ccccc13)[C@@](C(=O)OC)(c1cc3c(cc1OC)N(C)[C@H]1[C@@](O)(C(=O)OC)[C@H](OC(C)=O)[C@]4(CC)C=CCN5CC[C@]31[C@@H]54)C2 [Vinorelbin]
efficacy: impact on tumor growth [1]: less impact on tumor growth
cytotoxicity on stromal microtissues compared to untreated control ([5]; high dose 0.68 ug/ml): elevated cytotoxicity

C#Cc1cccc(Nc2ncnc3cc(OCCOC)c(OCCOC)cc23)c1 [Erlotinib]
effect on NSCLC microtumor growth [1]: reduced growth
time after which growth relapses ([1]; dosed 2× for 8h with a gap of 48h (FIG. 11)): > 7 days
impact on tumor growth, single doses [4]: hardly an impact on tumor growth

Nc1nc2[nH]cc(CCc3ccc(C(=O)N[C@@H](CCC(=O)O)C(=O)O)cc3)c2c(=O)[nH]1 [Pemetrexed]
effect on NSCLC microtumor growth [1]: tumor remission
effect on pancreatic microtumor growth [2]: did not affect tumor growth; also recorded: not active

CC(=O)O[C@@]12CO[C@@H]1C[C@H](O)[C@@]1(C)C(=O)[C@H](O)C3=C(C)[C@@H](OC(=O)[C@H](O)[C@@H](NC(=O)OC(C)(C)C)c4ccccc4)C[C@@](O)([C@@H](OC(=O)c4ccccc4)[C@H]21)C3(C)C [Docetaxel]
efficacy: impact on tumor growth [1]: higher efficacy
effect on pancreatic microtumor growth [2]: much slower
sustainability of response ([2]; dosed for 8h with a 48h gap, compared with Gemcitabine (FIG. 5A)): more sustainable
cytotoxicity on stromal microtissues compared to untreated control ([5]; 4.05 ug/ml): less toxicity

CCc1c2c(nc3ccc(OC(=O)N4CCC(N5CCCCC5)CC4)cc13)-c1cc3c(c(=O)n1C2)COC(=O)[C@]3(O)CC [Irinotecan]
ΔT14/ΔC14 [1]: −0.32
Time to MR (TMR) ([1]; Irinotecan 6.75 ug/ml): 4 days
Time until relapse (TR) ([1]; Irinotecan 6.75 ug/ml): 5 days
ΔT14/ΔC14 ([1]; Irinotecan 6.75 ug/ml, day 14): −0.60
Time to MR (TMR) ([1]; Irinotecan 27 ug/ml): 14 days
Response ([1]; Irinotecan 27 ug/ml): RE (≥20% decrease in microtumor size)
ΔT14/ΔC14 ([1]; Irinotecan 27 ug/ml, day 14): −3.09
Response ([2]; Irinotecan 0.675 ug/ml): PR (≥20%-100% increase in microtumor size)
ΔT14/ΔC14 ([2]; Irinotecan 0.675 ug/ml): 1.04
Time to MR (TMR) ([2]; Irinotecan 6.75 ug/ml): 7 days
Time until relapse (TR) ([2]; Irinotecan 6.75 ug/ml): 7 days
Response ([2]; Irinotecan 6.75 ug/ml): SR (+/−20% increase/decrease in size)
ΔT14/ΔC14 ([2]; Irinotecan 6.75 ug/ml): 0.06
Time to MR (TMR) ([2]; Irinotecan 67.5 ug/ml): 14 days
Response ([2]; Irinotecan 67.5 ug/ml): RE (≥20% decrease in microtumor size)
ΔT14/ΔC14 ([2]; Irinotecan 67.5 ug/ml): −0.36
dose to growth correlation ([2]; indicated concentrations, drug removed after 48 hours, growth relative to size at t0 (FIG. 4)): clear correlation of dose to growth
median cmax [3]: (median cmax = 5 ug/ml)
